{
  "source": "patent US9776992B2",
  "about": "“1-oxo-1,2-dihydroisoquinolin-7-yl-(5-substituted-thiophen-2-yl)-sulfonamide compounds, formulations containing those compounds, and their use as AICARFT inhibitors in the treatment of cancers” (Eli Lilly and Company, priority 2014, dated 2017)",
  "key": {"AICARFT [1]": {"target": "T1, AICARFT (Homo sapiens, UniProt P31939)", "T1 sequence (P31939 whole entry)": "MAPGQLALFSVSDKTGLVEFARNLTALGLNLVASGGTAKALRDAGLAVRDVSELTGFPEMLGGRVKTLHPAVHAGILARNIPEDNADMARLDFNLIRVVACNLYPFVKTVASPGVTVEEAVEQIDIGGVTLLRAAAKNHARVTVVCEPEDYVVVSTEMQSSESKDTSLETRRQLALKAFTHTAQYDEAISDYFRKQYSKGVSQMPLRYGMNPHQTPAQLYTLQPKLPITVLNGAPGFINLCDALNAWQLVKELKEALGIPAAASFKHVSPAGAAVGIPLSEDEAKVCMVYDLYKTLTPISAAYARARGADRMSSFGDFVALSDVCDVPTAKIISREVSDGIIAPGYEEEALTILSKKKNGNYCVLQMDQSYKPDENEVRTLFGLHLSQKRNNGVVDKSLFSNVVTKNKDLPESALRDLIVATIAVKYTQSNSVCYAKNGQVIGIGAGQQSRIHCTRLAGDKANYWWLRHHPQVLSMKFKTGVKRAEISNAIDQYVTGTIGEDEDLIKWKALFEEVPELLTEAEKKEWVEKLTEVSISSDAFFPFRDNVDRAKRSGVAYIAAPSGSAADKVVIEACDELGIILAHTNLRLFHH", "assay": "AICARFT enzyme assay (LC-MS of IMP and ZMP)", "type": "biochemical", "parameters": "made in house; host or cells: E. coli BL21(DE3)", "conditions": "summary of Table 15", "description": "Human AICARFT (NCBI accession number: NM_004044.6) cDNA is purchased from Openbiosystem Co. (Cat# MHS1011-62310, Clone ID: 4300570, accession: BC008879). The nucleotide sequence encoding full-length human AICARFT is inserted into pET21d (Novagen) vector with an N-terminal HIS tag. Bacterial BL21(DE3) (Novagen) is used as an expression host, and the induction of protein expression is carried out in 2×TY media with 1 mM IPTG at 18° C. overnight. Cell pellets are stored at −80° C. for subsequent protein purification. Protein purification is conducted at 4° C. Frozen cell pellets are lysed by incubation with stirring in 50 mL cold lysis buffer (50 mM Tris-HCl, pH 7.5, 300 mM NaCl, 10% glycerol, 0.1% Triton X-100, 0.5 mg/mL lysozyme, 5 U/mL benzonase, 1 mM DTT, 10 mM imidazole, and Roche complete EDTA-free protease inhibitor) per liter cell pellet and sonication. Cell lysates are clarified by centrifugation in a Bechman JA-18 rotor for 45 min at 16,500 rpm. The supernatant is incubated with Ni-NTA agarose resin (Qiagen) for 3 hours, followed by an initial batch wash with 10 resin volume of buffer A (50 mM Tris-HCl, pH 7.5, 300 mM NaCl, 10% glycerol, 1 mM DTT, 10 mM imidazole) containing 0.1% Triton X-100. The resin is then packed onto a column and washed with buffer A. The HIS-tagged AICARFT protein is eluted with 10-500 mM imidazole gradient in buffer A. Pooled HIS-AICARFT containing fractions are concentrated, loaded onto a HiLoad 26/600 Superdex 200 column (GE Healthcare Biosciences), and eluted with storage buffer (50 mM Tris-HCl, pH7.5, 150 mM NaCl, 1 mM DTT, 10% Glycerol). Fractions containing HIS-AICARFT are pooled and protein concentration determined by the Bradford assay using BSA as standard. The protein is aliquoted and stored at −80° C.\nOne of the substrates of the enzyme reaction, 10-formyltetrahydrofolate (10-F-THFA), has limited chemical stability and is therefore synthesized on the same day that the ATIC enzyme assay is performed. The general synthetic route is described in P. Rowe, Methods Enzymol., 18, 733-735, (1971) and J. Rabinowitz, Methods Enzymol., 6, 814-815, (1963). The first step in this synthesis is the conversion of folinic acid (Sigma CAS 1492-18-8) to 5,10-methenyltetrahydrofolic acid (5,10-M-THFA). This conversion typically takes place the day before the enzyme assay is performed, but can be performed up to 1 week earlier and stored at room temperature. To folinic acid (81.6 mg) is added β-mercaptoethanol (2 mL), and 37% concentrated HCl (80 μL), is added. This reaction incubates a minimum of 3 hours at room temperature, with occasional mixing. The color changes from clear to yellow visually, and the complete conversion of folinic acid to 5,10-M-THFA is monitored by spectral analysis using a quartz cuvette. The UV absorption will change from 266 nm to 356 nm during this step. […] On the morning of the assay, the 80 mM 5,10-M-THFA is diluted to 1.6 mM in 40 μM ammonium bicarbonate (made fresh that day). This reaction incubates 3-5 hours at room temperature. The color changes from yellow to clear visually, and the conversion of 5,10-M-THFA to 10-F-THFA is monitored by spectral analysis using a quartz cuvette. The UV absorption will change from 356 nm to 258 nm during this step. […] Test compounds are prepared in DMSO to make a 10 mM stock solution. The stock solution is serially diluted 3-fold in DMSO to obtain a ten-point dilution curve with final compound concentrations ranging from 100 μM to 5 nM. The final DMSO concentration in the assay is 5%.\nTo each well of a 384-well polypropylene assay plate (NUNC 264573), […] of DMSO (control wells) or compound in DMSO and 9 μL of 55.56 μM ZMP (Sigma-Aldrich CAS 3031-94-5) in water are added. Then, 10 μL of 200 μM 10-F-THFA and 6 nM ATIC enzyme in 40 μM ammonium bicarbonate is added. […] The assay is incubated for 1 hour at room temperature, after which 40 μL of ACN is added to stop the reaction."}, "AICARFT [2]": {"target": "T1, AICARFT", "assay": "MS detection of ZMP in low folate media cultured NCI-H460 cells", "type": "cell-based", "parameters": "endogenous in cells; host or cells: NCI-H460", "conditions": "low levels of folate in the media; summary of Table 16", "description": "Grow NCI-H460 cells in complete high folate RPMI media (ATCC #30-2001) until cellular confluence reaches ˜80%. Wash cells with PBS, trypsinize, resuspend cells in complete low folate RPMI media (Gibco #27016-021) and perform a cell count. Transfer 1.25×10^6 cells to a T225 flask containing complete low folate RPMI media (40 mL). Grow for seven days. Split cells again with complete low folate media if confluence surpasses 80%. Wash cells with PBS, trypsinize, resuspend cells in complete low folate RPMI media, and perform a cell count. Aliquot 10×10^6 cells in complete low folate media (1 mL)+5% DMSO per cryovial. Use a cell freezing apparatus to freeze cells in a slow and controlled manner in a −80° C. freezer. The next day, transfer cells to liquid nitrogen for long term storage. Thaw frozen cells from cryovial in 37° C. water bath, wash cells once with low folate assay medium: folate free RPMI 1640 medium (Gibco, #27016-021), Glucose (Sigma, #G5767), Hepes (Hyclone, #SH30237.01), Na Pyruvate (Hyclone, #Sh30239.01), 10% FBS (Hyclone, #SH30070.03). Adjust cells concentration to 250,000 cells/mL with medium, plate cells by adding 100 μl/well (25,000 cells/well) into Biocoat poly-D-lysine 96-well plate (BD, #35-4640), and incubate at 37° C. overnight with 5% CO2. Treat cells with 20 μl/well compound diluted in media containing 3% DMSO. Incubate at 37° C. for 16 hours with 5% CO2, then remove the medium and add 1× SureFire Lysis Buffer (50 μL) (PerkinElem, SureFire® Kit component) to each well and incubate at room temperature for 10 min with gentle shaking.\nCells grown in a 96-well plate have the media removed and are lysed in AlphaScreen® SureFire® lysis buffer. Standard curves containing ZMP, dUMP and AICAr at concentrations of 5-10,000 ng/mL are prepared in 40 mM ammonium acetate, pH 4. Aliquots (40 μL) of each standard or sample are combined in a deep 96-well plate with 160 μL of internal standard solution containing ^13C5-ZMP (custom synthesis) and ^13C5-AICAr (custom synthesis) at 100 ng/mL in 40 mM ammonium acetate, pH 4. A Beckman Biomek FX liquid handler is used to add 400 μL of DCM to each sample. Samples are sealed, vortexed for 5 minutes, and placed in the refrigerator for at least 30 minutes. The samples are centrifuged for 10 minutes at 4,000 rpm and 4° C. using an Eppendorf 5810R centrifuge, and the Biomek liquid handler is used to transfer 75 μL of the aqueous layer into a clean 96-well plate. The plates are sealed prior to analysis.\nThe LC-MS method utilizes a Shimadzu Prominence 20A HPLC system connected to an AB Sciex 5500™ or an AB Sciex 6500™ triple quadrupole mass spectrometer running Analyst® 2.1 software. Extracted samples are separated using a Thermo Hypercarb™ Javelin guard column (2.1×20 mm, […]) with an injection volume of 15 μL and a flow rate of 1 mL/minute. Mobile phase A is a 95:5 mixture of 50 mM ammonium formate, pH 4 and ACN. Mobile phase B is a 70:30 mixture of ACN and MeOH spiked with 0.3% formic acid and 2% concentrated ammonium hydroxide solution (v/v). The gradient is as follows: 0 minutes, 0% B; 0.25 minutes, 0% B; 2.00 minutes, 30% B; 2.01 minutes, 95% B; 3.50 minutes, 95% B, 3.51 minutes, 0% B, 5.00 minutes, stop.\nThe mass spectrometer is operated in positive ion TurboIonSpray® multiple reaction monitoring mode with a source temperature of 700° C. The precursor and fragment ions for each analyte are: ZMP (339→110), ^13C5-ZMP (344→110), dUMP (309→81), AICAr (259→127) and ^13C5-AICAr (264→127). Calibration curves are constructed by plotting analyte concentrations vs. analyte/internal standard peak area ratios and performing a linear fit of the data using a 1/concentration weighting with AB Sciex MultiQuant™ 2.1 software. Back-calculated ZMP concentrations are fit to a four-parameter logistic equation using ACTIVITYBASE 4.0 to determine IC50 values."}},
  "data": [
    {"compound": "O=c1[nH]ccc2cc(F)c(NS(=O)(=O)c3ccc(N4CC[C@H](O)C4)s3)cc12", "note": "[Example 8, N-(6-Fluoro-1-oxo-1,2-dihydroisoquinolin-7-yl)-5-[(3S)-3-hydroxypyrrolidin-1-yl]thiophene-2-sulfonamide]", "values": [
      {"measurement": "AICARFT inhibition in enzyme assay (in words)", "setting": "AICARFT [1]", "result": "inhibit AICARFT"},
      {"measurement": "AICARFT inhibition in low folate media assay (in words)", "setting": "AICARFT [2]", "result": "still inhibit AICARFT"}
    ]}
  ]
}
